Results: ChEMBL document CHEMBL1201862, “PubChem BioAssay data set” (2004)
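1) Cells in 96-well plates. 2) Compound, 48 h, 5 concentrations. 3) Linear interpolation between surrounding doses. 4) Unreached endpoint = highest concentration. GI50: concentration for 50% inhibition of growth.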 The source made the active and inactive calls. No stated cut-off is given here; in the data, active = GI50 up to about 1.1 µM and inactive = higher.

Key:
Assay in all cases: NCI tumour cell line growth inhibition, 48 h
HT-29 = system: HT-29
SW-620 = system: SW-620
MDA-N = system: MDA-N
HCT-116 = system: HCT-116
SK-OV-3 = system: SK-OV-3
MCF7 = system: MCF7
OVCAR-4 = system: OVCAR-4
PC-3 = system: PC-3
CCRF-CEM = system: CCRF-CEM
SK-MEL-2 = system: SK-MEL-2
SNB-19 = system: SNB-19
OVCAR-8 = system: OVCAR-8
T47D = system: T47D
Hs-578T = system: Hs-578T
RXF 393 = system: RXF 393
NCI-H226 = system: NCI-H226
NCI/ADR-RES = system: NCI/ADR-RES
U-251 = system: U-251
M14 = system: M14
OVCAR-5 = system: OVCAR-5
SF-268 = system: SF-268
NCI-H460 = system: NCI-H460
MDA-MB-435 = system: MDA-MB-435
CAKI-1 = system: CAKI-1
A549 = system: A549
TK-10 = system: TK-10
MDA-MB-231 = system: MDA-MB-231
HOP-62 = system: HOP-62
MOLT-4 = system: MOLT-4
BT-549 = system: BT-549
SK-MEL-28 = system: SK-MEL-28
SR = system: SR
786-0 = system: 786-0
UACC-257 = system: UACC-257
LOX IMVI = system: LOX IMVI
HL-60 = system: HL-60
Malme-3M = system: Malme-3M
KM12 = system: KM12
EKVX = system: EKVX
K562 = system: K562
COLO 205 = system: COLO 205
RPMI-8226 = system: RPMI-8226
SK-MEL-5 = system: SK-MEL-5
DU-145 = system: DU-145
UO-31 = system: UO-31
SF-539 = system: SF-539
SF-295 = system: SF-295
NCI-H23 = system: NCI-H23
OVCAR-3 = system: OVCAR-3
UACC-62 = system: UACC-62
HCC 2998 = system: HCC 2998
SN12C = system: SN12C
A498 = system: A498
HCT-15 = system: HCT-15
IGROV-1 = system: IGROV-1
ACHN = system: ACHN
NCI-H522 = system: NCI-H522
SNB-75 = system: SNB-75

CO/N=C(\C)CCC#Cc1ccccc1C(=O)OC
GI50 (HT-29): > 10 µM (inactive) | GI50 (SW-620): > 10 µM (inactive) | GI50 (MDA-N): > 10 µM (inactive) | GI50 (HCT-116): > 10 µM (inactive) | GI50 (SK-OV-3): > 10 µM (inactive) | GI50 (MCF7): > 10 µM (inactive) | GI50 (OVCAR-4): > 10 µM (inactive) | GI50 (PC-3): > 10 µM (inactive) | GI50 (CCRF-CEM): > 10 µM (inactive) | GI50 (SK-MEL-2): > 10 µM (inactive) | GI50 (SNB-19): > 10 µM (inactive) | GI50 (OVCAR-8): > 10 µM (inactive) | GI50 (T47D): > 10 µM (inactive) | GI50 (Hs-578T): > 10 µM (inactive) | GI50 (RXF 393): > 10 µM (inactive) | GI50 (NCI-H226): > 10 µM (inactive) | GI50 (NCI/ADR-RES): > 10 µM (inactive) | GI50 (U-251): > 10 µM (inactive) | GI50 (M14): > 10 µM (inactive) | GI50 (OVCAR-5): > 10 µM (inactive) | GI50 (SF-268): > 10 µM (inactive) | GI50 (NCI-H460): > 10 µM (inactive) | GI50 (MDA-MB-435): > 10 µM (inactive) | GI50 (CAKI-1): > 10 µM (inactive) | GI50 (A549): > 10 µM (inactive) | GI50 (TK-10): > 10 µM (inactive) | GI50 (MDA-MB-231): > 10 µM (inactive) | GI50 (HOP-62): > 10 µM (inactive) | GI50 (MOLT-4): > 10 µM (inactive) | GI50 (BT-549): > 10 µM (inactive) | GI50 (SK-MEL-28): > 10 µM (inactive) | GI50 (SR): > 10 µM (inactive) | GI50 (786-0): > 10 µM (inactive) | GI50 (UACC-257): > 10 µM (inactive) | GI50 (LOX IMVI): > 10 µM (inactive) | GI50 (HL-60): > 10 µM (inactive) | GI50 (Malme-3M): > 10 µM (inactive) | GI50 (KM12): > 10 µM (inactive) | GI50 (EKVX): > 10 µM (inactive) | GI50 (K562): > 10 µM (inactive) | GI50 (COLO 205): > 10 µM (inactive) | GI50 (RPMI-8226): > 10 µM (inactive) | GI50 (SK-MEL-5): > 10 µM (inactive) | GI50 (DU-145): > 10 µM (inactive) | GI50 (UO-31): > 10 µM (inactive) | GI50 (SF-539): > 10 µM (inactive) | GI50 (SF-295): > 10 µM (inactive) | GI50 (NCI-H23): > 10 µM (inactive) | GI50 (OVCAR-3): > 10 µM (inactive) | GI50 (UACC-62): > 10 µM (inactive) | GI50 (HCC 2998): > 10 µM (inactive) | GI50 (SN12C): > 10 µM (inactive) | GI50 (A498): > 10 µM (inactive) | GI50 (HCT-15): > 10 µM | GI50 (IGROV-1): > 10 µM (inactive) | GI50 (ACHN): > 10 µM (inactive)

COC(=O)c1c2c(cc3c1CCC3)CCC2
GI50 (HT-29): 26.3 µM (inactive) | GI50 (SW-620): > 100 µM (inactive) | GI50 (MDA-N): 55.3 µM (inactive) | GI50 (HCT-116): 39.6 µM (inactive) | GI50 (SK-OV-3): 91.4 µM (inactive) | GI50 (MCF7): 38.7 µM (inactive) | GI50 (OVCAR-4): 82.2 µM (inactive) | GI50 (PC-3): 44.7 µM (inactive) | GI50 (CCRF-CEM): 20.1 µM (inactive) | GI50 (SK-MEL-2): 24.8 µM (inactive) | GI50 (SNB-19): > 100 µM (inactive) | GI50 (OVCAR-8): > 100 µM (inactive) | GI50 (T47D): 13.3 µM (inactive) | GI50 (Hs-578T): 35.8 µM (inactive) | GI50 (NCI-H226): 54.7 µM (inactive) | GI50 (NCI/ADR-RES): > 100 µM (inactive) | GI50 (U-251): 51.9 µM (inactive) | GI50 (M14): > 100 µM (inactive) | GI50 (OVCAR-5): > 100 µM (inactive) | GI50 (SF-268): 95.7 µM (inactive) | GI50 (NCI-H460): 94.6 µM (inactive) | GI50 (MDA-MB-435): 70.8 µM (inactive) | GI50 (CAKI-1): 72.4 µM (inactive) | GI50 (A549): 61.2 µM (inactive) | GI50 (TK-10): 57.4 µM (inactive) | GI50 (MDA-MB-231): 37.7 µM (inactive) | GI50 (HOP-62): > 100 µM (inactive) | GI50 (NCI-H522): 46.6 µM (inactive) | GI50 (MOLT-4): 21.6 µM (inactive) | GI50 (BT-549): 95.9 µM (inactive) | GI50 (SK-MEL-28): 53.6 µM (inactive) | GI50 (SR): 18.2 µM (inactive) | GI50 (786-0): 80.7 µM (inactive) | GI50 (UACC-257): 48 µM (inactive) | GI50 (LOX IMVI): 39.4 µM (inactive) | GI50 (HL-60): 15.5 µM (inactive) | GI50 (Malme-3M): 48.2 µM (inactive) | GI50 (KM12): 65.3 µM (inactive) | GI50 (EKVX): 39.6 µM (inactive) | GI50 (K562): 29.6 µM (inactive) | GI50 (COLO 205): 96.2 µM (inactive) | GI50 (RPMI-8226): 20.2 µM (inactive) | GI50 (SK-MEL-5): 15.9 µM (inactive) | GI50 (DU-145): 65.8 µM (inactive) | GI50 (SNB-75): 28.4 µM (inactive) | GI50 (UO-31): 72.8 µM (inactive) | GI50 (SF-539): 92.7 µM (inactive) | GI50 (SF-295): 29.9 µM (inactive) | GI50 (NCI-H23): 80.7 µM (inactive) | GI50 (OVCAR-3): > 100 µM (inactive) | GI50 (UACC-62): 51.1 µM (inactive) | GI50 (HCC 2998): 59.4 µM (inactive) | GI50 (SN12C): > 100 µM (inactive) | GI50 (A498): 28.6 µM (inactive) | GI50 (HCT-15): 57.8 µM | GI50 (IGROV-1): > 100 µM (inactive) | GI50 (ACHN): > 100 µM (inactive)
